Source: patent US20180200257A1, “METHODS FOR THE TREATMENT OF INFLAMMATORY DISORDERS” (Galapagos NV, priority 2015, published 2018)

System: subjects with moderately to severely active RA who have an inadequate response to methotrexate (MTX)
Assay: Study 2 (monotherapy) - Alanine Aminotransferase (ALT) levels
Type: in vivo, human
Source text: Randomized, double-blind, placebo-controlled, multicenter, phase IIb dose finding study of Compound 1 (dosed as a [Compound 1:HCl:3H2O]) administered for 24 weeks as monotherapy to subjects with moderately to severely active rheumatoid arthritis who have an inadequate response to methotrexate alone
Double-blind, placebo-controlled, monotherapy study in subjects with moderately to severely active RA who have an inadequate response to methotrexate (MTX) (oral or parenteral).
280 subjects randomized to one of 3 doses of Compound 1 (dosed as a [Compound 1:HCl:3H2O]) or to placebo, given once daily (q.d.).
Twelve weeks of treatment with Compound 1 (dosed as a [Compound 1:HCl:3H2O]) at 50 mg, 100 mg, or 200 mg q.d.; or placebo. At Week 12, all subjects on placebo and the subjects on the 50 mg dose who have not achieved 20% improvement in swollen joint count (SJC66) and tender joint count (TJC68) will be assigned to 100 mg q.d. in a blinded fashion and will continue treatment until Week 24. Subjects in the other groups will maintain their randomized treatment until Week 24.
ALT levels determination is available at Quest Diagnostics, Clinical Trials, Quest House, 125-135 Staines Road, Hounslow, Middlesex, TW3 3JB, United Kingdom under Catalogue n#84460.
ALT catalyzes the exchange of the amino group of alanine with the oxogroup of 2-ketoglutarate to form pyruvate and glutamate. In the presence of lactic dehydrogenase, pyruvate reacts with NADH to form NAD+, measured spectrophotometrically. Guidelines for the ALT value have been issued by the association for Clinical Biochemistry and Laboratory Medicine, 130-132 Tooley Street LONDON SE1 2TU, united Kingdom, wherein the ALT value should be below 34 U/l in Female and below 52 U/L in male.
Subjects in the other groups maintained their randomized treatment until Week 24.

[1] = 12 weeks results, 50 mg q.d., week 1
[2] = 12 weeks results, 50 mg q.d., week 2
[3] = 12 weeks results, 50 mg q.d., week 4
[4] = 12 weeks results, 50 mg q.d., week 8
[5] = 12 weeks results, 50 mg q.d., week 12
[6] = 12 weeks results, 100 mg q.d., week 1
[7] = 12 weeks results, 100 mg q.d., week 2
[8] = 12 weeks results, 100 mg q.d., week 4
[9] = 12 weeks results, 100 mg q.d., week 8
[10] = 12 weeks results, 100 mg q.d., week 12
[11] = 12 weeks results, 200 mg q.d., week 1
[12] = 12 weeks results, 200 mg q.d., week 2
[13] = 12 weeks results, 200 mg q.d., week 4
[14] = 12 weeks results, 200 mg q.d., week 8
[15] = 12 weeks results, 200 mg q.d., week 12
[16] = 24 weeks results, 50 mg q.d. non responders switching to 100 mg q.d. at week 12, week 1
[17] = 24 weeks results, 50 mg q.d. non responders switching to 100 mg q.d. at week 12, week 2
[18] = 24 weeks results, 50 mg q.d. non responders switching to 100 mg q.d. at week 12, week 4
[19] = 24 weeks results, 50 mg q.d. non responders switching to 100 mg q.d. at week 12, week 8
[20] = 24 weeks results, 50 mg q.d. non responders switching to 100 mg q.d. at week 12, week 12
[21] = 24 weeks results, 50 mg q.d. non responders switching to 100 mg q.d. at week 12, week 16
[22] = 24 weeks results, 50 mg q.d. non responders switching to 100 mg q.d. at week 12, week 20
[23] = 24 weeks results, 50 mg q.d. non responders switching to 100 mg q.d. at week 12, week 24
[24] = 24 weeks results, 50 mg q.d. responders, week 1
[25] = 24 weeks results, 50 mg q.d. responders, week 2
[26] = 24 weeks results, 50 mg q.d. responders, week 4
[27] = 24 weeks results, 50 mg q.d. responders, week 8
[28] = 24 weeks results, 50 mg q.d. responders, week 12
[29] = 24 weeks results, 50 mg q.d. responders, week 16
[30] = 24 weeks results, 50 mg q.d. responders, week 20
[31] = 24 weeks results, 50 mg q.d. responders, week 24
[32] = 24 weeks results, 100 mg q.d., week 1
[33] = 24 weeks results, 100 mg q.d., week 2
[34] = 24 weeks results, 100 mg q.d., week 4
[35] = 24 weeks results, 100 mg q.d., week 8
[36] = 24 weeks results, 100 mg q.d., week 12
[37] = 24 weeks results, 100 mg q.d., week 16
[38] = 24 weeks results, 100 mg q.d., week 20
[39] = 24 weeks results, 100 mg q.d., week 24
[40] = 24 weeks results, 200 mg q.d., week 1
[41] = 24 weeks results, 200 mg q.d., week 2
[42] = 24 weeks results, 200 mg q.d., week 4
[43] = 24 weeks results, 200 mg q.d., week 8
[44] = 24 weeks results, 200 mg q.d., week 12
[45] = 24 weeks results, 200 mg q.d., week 16
[46] = 24 weeks results, 200 mg q.d., week 20
[47] = 24 weeks results, 200 mg q.d., week 24
[48] = 24 weeks results, placebo switching to 100 mg q.d. at week 12, week 16
[49] = 24 weeks results, placebo switching to 100 mg q.d. at week 12, week 20
[50] = 24 weeks results, placebo switching to 100 mg q.d. at week 12, week 24

`O=C(Nc1nc2cccc(-c3ccc(CN4CCS(=O)(=O)CC4)cc3)n2n1)C1CC1` [Compound 1, cyclopropanecarboxylic acid {5-[4-(1,1-dioxo-thiomorpholin-4-ylmethyl)-phenyl]-[1,2,4]triazolo[1,5-a]pyridin-2-yl}-amide] was tested, and the “Study 2 - ALT Mean CFB” value [1] was −1.4 IU/L, the “Study 2 - ALT Mean percentage CFB” value [1] was −1.29% and the “Study 2 - ALT Mean CFB” value [2] was −2.6 IU/L. For the same compound, the “Study 2 - ALT Mean percentage CFB” value [2] was −3.25%, the “Study 2 - ALT Mean CFB” value [3] was −2.2 IU/L and the “Study 2 - ALT Mean percentage CFB” value [3] was −3.73%. The “Study 2 - ALT Mean CFB” value [4] was −3.0 IU/L, the “Study 2 - ALT Mean percentage CFB” value [4] was −0.73% and the “Study 2 - ALT Mean CFB” value [5] was −1.4 IU/L. For the same compound, the “Study 2 - ALT Mean percentage CFB” value [5] was 1.77%, the “Study 2 - ALT Mean CFB” value [6] was 0.4 IU/L and the “Study 2 - ALT Mean percentage CFB” value [6] was 13.98%. The “Study 2 - ALT Mean CFB” value [7] was 0.7 IU/L, the “Study 2 - ALT Mean percentage CFB” value [7] was 13.25% and the “Study 2 - ALT Mean CFB” value [8] was 0.3 IU/L. For the same compound, the “Study 2 - ALT Mean percentage CFB” value [8] was 17.82%, the “Study 2 - ALT Mean CFB” value [9] was −0.5 IU/L and the “Study 2 - ALT Mean percentage CFB” value [9] was 7.83%. The “Study 2 - ALT Mean CFB” value [10] was 1.3 IU/L, the “Study 2 - ALT Mean percentage CFB” value [10] was 14.61% and the “Study 2 - ALT Mean CFB” value [11] was −1.8 IU/L. The “Study 2 - ALT Mean percentage CFB” value [11] was −0.92%, the “Study 2 - ALT Mean CFB” value [12] was −1.1 IU/L and the “Study 2 - ALT Mean percentage CFB” value [12] was 1.07%. For the same compound, the “Study 2 - ALT Mean CFB” value [13] was −1.4 IU/L, the “Study 2 - ALT Mean percentage CFB” value [13] was 4.71% and the “Study 2 - ALT Mean CFB” value [14] was −0.8 IU/L. For the same compound, the “Study 2 - ALT Mean percentage CFB” value [14] was 8.41%, the “Study 2 - ALT Mean CFB” value [15] was −1.1 IU/L and the “Study 2 - ALT Mean percentage CFB” value [15] was 5.69%. For the same compound, the “Study 2 - ALT Mean CFB” value [16] was −0.1 IU/L, the “Study 2 - ALT Mean percentage CFB” value [16] was 0.97% and the “Study 2 - ALT Mean CFB” value [17] was −0.2 IU/L. The “Study 2 - ALT Mean percentage CFB” value [17] was −0.54%, the “Study 2 - ALT Mean CFB” value [18] was 0.6 IU/L and the “Study 2 - ALT Mean percentage CFB” value [18] was 4.48%. For the same compound, the “Study 2 - ALT Mean CFB” value [19] was −1.3 IU/L, the “Study 2 - ALT Mean percentage CFB” value [19] was −4.46% and the “Study 2 - ALT Mean CFB” value [20] was −0.9 IU/L. The “Study 2 - ALT Mean percentage CFB” value [20] was −1.26%, the “Study 2 - ALT Mean CFB” value [21] was 0.9 IU/L and the “Study 2 - ALT Mean percentage CFB” value [21] was 6.27%. The “Study 2 - ALT Mean CFB” value [22] was 0.3 IU/L, the “Study 2 - ALT Mean percentage CFB” value [22] was 4.86% and the “Study 2 - ALT Mean CFB” value [23] was 3.2 IU/L. The “Study 2 - ALT Mean percentage CFB” value [23] was 22.47%, the “Study 2 - ALT Mean CFB” value [24] was −1.7 IU/L and the “Study 2 - ALT Mean percentage CFB” value [24] was −1.89%. The “Study 2 - ALT Mean CFB” value [25] was −3.3 IU/L, the “Study 2 - ALT Mean percentage CFB” value [25] was −3.98% and the “Study 2 - ALT Mean CFB” value [26] was −3.0 IU/L. For the same compound, the “Study 2 - ALT Mean percentage CFB” value [26] was −5.93%, the “Study 2 - ALT Mean CFB” value [27] was −3.4 IU/L and the “Study 2 - ALT Mean percentage CFB” value [27] was 0.30%. The “Study 2 - ALT Mean CFB” value [28] was −1.6 IU/L, the “Study 2 - ALT Mean percentage CFB” value [28] was 2.63% and the “Study 2 - ALT Mean CFB” value [29] was −0.2 IU/L. For the same compound, the “Study 2 - ALT Mean percentage CFB” value [29] was 17.03%, the “Study 2 - ALT Mean CFB” value [30] was −0.5 IU/L and the “Study 2 - ALT Mean percentage CFB” value [30] was 8.38%. The “Study 2 - ALT Mean CFB” value [31] was −0.2 IU/L, the “Study 2 - ALT Mean percentage CFB” value [31] was 16.54% and the “Study 2 - ALT Mean CFB” value [32] was 0.4 IU/L. For the same compound, the “Study 2 - ALT Mean percentage CFB” value [32] was 13.98%, the “Study 2 - ALT Mean CFB” value [33] was 0.7 IU/L and the “Study 2 - ALT Mean percentage CFB” value [33] was 13.25%. For the same compound, the “Study 2 - ALT Mean CFB” value [34] was 0.3 IU/L, the “Study 2 - ALT Mean percentage CFB” value [34] was 17.82% and the “Study 2 - ALT Mean CFB” value [35] was −0.5 IU/L. For the same compound, the “Study 2 - ALT Mean percentage CFB” value [35] was 7.83%, the “Study 2 - ALT Mean CFB” value [36] was 1.3 IU/L and the “Study 2 - ALT Mean percentage CFB” value [36] was 14.61%. For the same compound, the “Study 2 - ALT Mean CFB” value [37] was 4.1 IU/L, the “Study 2 - ALT Mean percentage CFB” value [37] was 25.66% and the “Study 2 - ALT Mean CFB” value [38] was 1.8 IU/L. For the same compound, the “Study 2 - ALT Mean percentage CFB” value [38] was 37.63%, the “Study 2 - ALT Mean CFB” value [39] was 0.4 IU/L and the “Study 2 - ALT Mean percentage CFB” value [39] was 20.33%. For the same compound, the “Study 2 - ALT Mean CFB” value [40] was −1.8 IU/L, the “Study 2 - ALT Mean percentage CFB” value [40] was −0.92% and the “Study 2 - ALT Mean CFB” value [41] was −1.1 IU/L. The “Study 2 - ALT Mean percentage CFB” value [41] was 1.07%, the “Study 2 - ALT Mean CFB” value [42] was −1.4 IU/L and the “Study 2 - ALT Mean percentage CFB” value [42] was 4.71%. For the same compound, the “Study 2 - ALT Mean CFB” value [43] was −0.8 IU/L, the “Study 2 - ALT Mean percentage CFB” value [43] was 8.41% and the “Study 2 - ALT Mean CFB” value [44] was −1.1 IU/L. The “Study 2 - ALT Mean percentage CFB” value [44] was 5.69%, the “Study 2 - ALT Mean CFB” value [45] was 0.4 IU/L and the “Study 2 - ALT Mean percentage CFB” value [45] was 17.47%. For the same compound, the “Study 2 - ALT Mean CFB” value [46] was −0.6 IU/L, the “Study 2 - ALT Mean percentage CFB” value [46] was 6.69% and the “Study 2 - ALT Mean CFB” value [47] was −1.3 IU/L. For the same compound, the “Study 2 - ALT Mean percentage CFB” value [47] was 5.83%, the “Study 2 - ALT Mean CFB” value [48] was 0.4 IU/L and the “Study 2 - ALT Mean percentage CFB” value [48] was 15.03%. For the same compound, the “Study 2 - ALT Mean CFB” value [49] was 0.8 IU/L, the “Study 2 - ALT Mean percentage CFB” value [49] was 17.28% and the “Study 2 - ALT Mean CFB” value [50] was 0.9 IU/L. For the same compound, the “Study 2 - ALT Mean percentage CFB” value [50] was 18.10%.
